{"source": "patent US4631292A", "about": "“1,3-dioxane derivatives, method of their synthesis and anti-peptic ulcer agent” (Kotobuki Seiyaku Co., Ltd., priority 1983, dated 1986)", "key": {"[1]": {"test_system": "aspirin-induced pylorus-ligated rats", "test": "Aspirin-induced ulcer in pylorus-ligated rats (method of S. Okabe)", "type": "in vivo", "conditions": "oral dose 500 mg/kg", "procedure": "(1) The effect of the compounds of the invention is examined by using aspirin-induced pylorus-ligated rats according to the methods of S. Okabe (Oyo-Yakuri 9 (1), 31-37 1975). The test compounds are given orally at a dose of 500 mg./kg."}, "ethanol induced ulcer": {"test_system": "ethanol induced ulcer", "test": "Ethanol induced ulcer (method of L. Robert, modified)", "type": "in vivo", "conditions": "ethanol/HCl induced ulcer, rats; for ulcer index (mm): 30 min before ethanol, 1 hour after ethanol", "procedure": "(2) The effect on ethanol induced ulcer is examined according to the method of L. Robert (Gastroenterology 77,433-443, 1979) with some modification. Rats are fasted for 24 hrs. and after 30 min. of the oral test drug administration, 1 ml. of 60% ethanol of 150 mM hydrochloric acid solution is given.\nExactly 1 hour later, the animals are sacrificed and the stomach is removed to examine their ulcer index."}}}
{"smiles": "CC(C)=CCCC1OCCC(C)O1", "note": "(centres unmarked) [Compound 1, 2-(4-methyl-3-pentene)-6-methyl-1,3-dioxane]", "values": [{"measurement": "% inhibition", "setting": "[1]", "value": 50.6, "unit": "%"}, {"measurement": "ulcer index (mm) ± S.E.", "setting": "[1]", "value": "11.0 ± 2.98", "unit": "mm"}]}
{"smiles": "CC(C)=CCCC(C)CC1OCCC(C)O1", "note": "(centres unmarked) [Compound 2, 2-(2,6-dimethyl-5-heptene)-6-methyl-1,3-dioxane]", "values": [{"measurement": "% inhibition", "setting": "[1]", "value": 35.9, "unit": "%"}, {"measurement": "ulcer index (mm) ± S.E.", "setting": "[1]", "value": "27.8 ± 7.1", "unit": "mm"}]}
{"smiles": "CC(C)=CCCC1(C)OCCC(C)O1", "note": "(centres unmarked) [Compound 5, 2-(4-methyl-3-pentenyl)-2-methyl-4-methyl-1,3-dioxane]", "values": [{"measurement": "% inhibition", "setting": "[1]", "value": 88.1, "unit": "%"}, {"measurement": "ulcer index (mm) ± S.E.", "setting": "[1]", "value": "2.2 ± 0.8", "unit": "mm"}, {"measurement": "% inhibition", "setting": "ethanol induced ulcer; oral dose 100 mg/kg", "value": 59.7, "unit": "%"}, {"measurement": "ulcer index (mm)", "setting": "ethanol induced ulcer; oral dose 100 mg/kg", "value": "27.1 ± 7.3", "unit": "mm"}, {"measurement": "% inhibition", "setting": "ethanol induced ulcer; oral dose 500 mg/kg", "value": 95.1, "unit": "%"}, {"measurement": "ulcer index (mm)", "setting": "ethanol induced ulcer; oral dose 500 mg/kg", "value": "3.3 ± 1.2", "unit": "mm"}]}
{"smiles": "CC1CCC(C(C)C)C2(C1)OCCC(C)O2", "note": "(centres unmarked) [Compound 6, spiro[2isopropyl-5-methyl-cyclohexane-1,2'-4'-methyl 1',3']dioxane]", "values": [{"measurement": "% inhibition", "setting": "[1]", "value": 53.9, "unit": "%"}, {"measurement": "ulcer index (mm) ± S.E.", "setting": "[1]", "value": "10.3 ± 4.16", "unit": "mm"}]}
{"smiles": "CC(C)=CCCC1(C)OC(C)CC(C)O1", "note": "(centres unmarked) [Compound 11, 2-(4-methyl-3-pentenyl)-2-methyl-4,6-dimethyl-1,3-dioxane]", "values": [{"measurement": "% inhibition", "setting": "[1]", "value": 33.7, "unit": "%"}, {"measurement": "ulcer index (mm) ± S.E.", "setting": "[1]", "value": "14.5 ± 5.12", "unit": "mm"}]}
